{"source": "patent US12138235B2", "about": "“Cape-loaded targeted microvesicular cancer drug and method for developing the same” (YEDITEPE UNIVERSITESI, priority 2017, dated 2024)", "origin": "cited, not measured here", "key": {"[1]": {"tested_on": "MCF-7, MDA-MB-231 and TNBC breast cancer cell lines", "details": "CAPE 40 μM"}, "[2]": {"tested_on": "TW2.6 oral squamous cell carcinoma cell line", "details": "CAPE 100 μM"}, "[3]": {"tested_on": "ME180 cervical cancer cell lines", "details": "CAPE 50 μM"}, "[4]": {"details": "rats, prophylactic administration"}, "[5]": {"tested_on": "SK-1 Hep1 liver cancer cell line", "details": "combined treatment of CAPE 30 μg/ml and TRAIL"}, "[6]": {"tested_on": "LNCaP, DU-145 and PC-3 prostate cancer cell lines"}, "[7]": {"details": "rats"}, "[8]": {"tested_on": "SH-SY5Y neuroblastoma cell line", "details": "CAPE 4-20 μM"}, "breast cancer stem cells": {"tested_on": "breast cancer stem cells", "details": "CAPE 40 μM"}}}
{"molecule": "O=C(/C=C/c1ccc(O)c(O)c1)OCCc1ccccc1", "note": "[CAPE, caffeic acid phenethyl ester]", "values": [{"measurement": "cell proliferation, cell cycle arrest, apoptosis, angiogenesis", "setting": "[1]", "result": "dose-dependently stops cell proliferation, induces cell cycle arrest and apoptosis, and suppresses angiogenesis"}, {"measurement": "cell cycle phase populations and apoptosis", "setting": "[2]", "result": "decreased G1 phase cell population, increased G2/M phase cell population and induced apoptosis"}, {"measurement": "proliferation, cell cycle arrest, apoptosis", "setting": "[3]", "result": "prevents proliferation by inducing S and G2/M phase cell cycle arrests and induces apoptosis"}, {"measurement": "damage caused by doxorubicin in kidney, heart and brain tissues", "setting": "[4]", "result": "prevented the damage"}, {"measurement": "liver damage depending on administration of cisplatin and tamoxifen", "setting": "[4]", "result": "prevented the damage"}, {"measurement": "caspase activation, cell death receptors, apoptosis", "setting": "[5]", "result": "caspase activation increased, cell death receptors were activated via JNK and p38 signaling pathways and apoptosis was induced"}, {"measurement": "cell proliferation and Akt signaling pathway", "setting": "[6]", "result": "dose-dependently inhibits cell proliferation"}, {"measurement": "radiation induced lung injury", "setting": "[7]", "result": "decreased radiation induced lung injury"}, {"measurement": "effect in SH-SY5Y cells", "setting": "[8]", "result": "no effect was observed"}, {"measurement": "proliferation of breast cancer stem cells", "setting": "breast cancer stem cells", "result": "inhibits proliferation of breast cancer stem cells"}]}
